The results in this text go back to patent US11267811B2, “Small molecule inhibitors of galectin-3” (BRISTOL-MYERS SQUIBB COMPANY, priority 2017, dated 2022).

For orientation: IC50 means the concentration at which inhibition is half-maximal.

The target of the first assay is His-tagged recombinant human Gal-3 (hGal-3) (Homo sapiens (Human), UniProt P17931). Briefly: Gal-3 HTRF assay (His-tagged hGal-3 binding to B-ASF).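 Also: compounds preincubated 30 min with hGal-3, then 1 h with B-ASF, detection via terbium anti-His antibody and streptavidin d2. Control with B-ASF counts as full signal, omitting B-ASF as background.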 Conditions: HTRF, hGal-3 15 nM, B-ASF 15 nM; read-out: hGal-3 IC50. For orientation: In TR-FRET formats the signal depends on donor and acceptor labels being close together.
Chain of His-tagged recombinant human Gal-3 (hGal-3) (P17931 whole entry): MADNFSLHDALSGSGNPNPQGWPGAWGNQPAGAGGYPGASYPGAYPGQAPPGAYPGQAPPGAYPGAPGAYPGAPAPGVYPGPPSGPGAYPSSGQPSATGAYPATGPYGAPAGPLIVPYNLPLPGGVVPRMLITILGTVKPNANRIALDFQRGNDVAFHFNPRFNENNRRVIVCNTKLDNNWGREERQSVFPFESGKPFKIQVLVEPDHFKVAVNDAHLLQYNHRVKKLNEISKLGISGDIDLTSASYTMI
As to `OC[C@H]1O[C@@H](c2nncn2-c2ccc3ccccc3c2)[C@H](O)[C@@H](n2cc(-c3cc(F)c(F)c(F)c3)nn2)[C@H]1O` [Example 95], the IC50 was 130 nM.
The same measure, in the same setting: in the case of `OC[C@H]1O[C@@H](c2nncn2-c2cc(Cl)cc(C(F)(F)F)c2)[C@H](O)[C@@H](n2cc(-c3cc(F)c(F)c(F)c3)nn2)[C@H]1O` [Example 118] it was 160 nM; in that of `COc1ccc(-n2cnnc2[C@@H]2O[C@H](CO)[C@H](O)[C@H](n3cc(-c4cc(F)c(F)c(F)c4)nn3)[C@H]2O)cc1Cl` [Example 145], 230 nM; in that of `CCO[C@@H]1[C@@H](n2cc(-c3cc(F)c(F)c(F)c3)nn2)[C@@H](O)[C@@H](CO)O[C@H]1n1nncc1-c1cccc(Cl)c1` [Example 12, (2R,3R,4S,5R,6R)-6-(5-(3-chlorophenyl)-1H-1,2,3-triazol-1-yl)-5-ethoxy-2-(hydroxymethyl)-4-(4-(3,4,5-trifluorophenyl)-1H-1,2,3-triazol-1-yl)tetrahydro-2H-pyran-3-ol], 970 nM.
On the same count and under the same terms, in the case of `CO[C@@H]1[C@@H](n2cc(-c3cc(F)c(F)c(F)c3)nn2)[C@@H](O)[C@@H](CO)O[C@H]1c1ncnn1-c1ccc(Cl)c(Cl)c1` [Example 190] it was 180 nM; in that of `OC[C@H]1O[C@@H](c2ncnn2-c2ccc3ncsc3c2)[C@H](O)[C@@H](n2cc(-c3cc(F)c(F)c(F)c3)nn2)[C@H]1O` [Example 46], 40 nM.
As to `Cc1nc2ccc(-n3ncnc3[C@@H]3O[C@H](CO)[C@H](O)[C@H](n4cc(C(=O)N(C)C)nn4)[C@H]3O)cc2s1` [Example 196], the IC50 was 5650 nM.
The same measure, in the same setting: in the case of `OC[C@H]1O[C@@H](c2ncnn2-c2cc(Cl)cc(Cl)c2)[C@H](O)[C@@H](n2cc(-c3cc(F)c(F)c(F)c3)nn2)[C@H]1O` [Example 41] it was 110 nM; in that of `CO[C@@H]1[C@@H](n2cc(-c3cc(F)c(F)c(F)c3)nn2)[C@@H](O)[C@@H](CO)O[C@H]1c1ncnn1-c1cccc(Cl)c1` [Example 189], 90 nM; in that of `O=C(NCc1ccncc1)c1nnc([C@@H]2O[C@H](CO)[C@H](O)[C@H](n3cc(-c4cccc(F)c4)nn3)[C@H]2O)o1` [Example 296, 5-((2R,3R,4S,5R,6R)-4-(4-(3-fluorophenyl)-1H-1,2,3-triazol-1-yl)-3,5-dihydroxy-6-(hydroxymethyl)tetrahydro-2H-pyran-2-yl)-N-(pyridin-4-ylmethyl)-1,3,4-oxadiazole-2-carboxamide], 1490 nM.
Take `O=S1(=O)Cc2ccc(-n3cnnc3[C@@H]3O[C@H](CO)[C@H](O)[C@H](n4cc(-c5cc(F)c(F)c(F)c5)nn4)[C@H]3O)cc2C1` [Example 99]: the IC50 was found to be 890 nM.
Still for that read-out and setting: in the case of `Cc1nc2ccc(-n3cnnc3[C@@H]3O[C@H](CO)[C@H](O)[C@H](n4cc(-c5cc(F)c(F)c(F)c5)nn4)[C@H]3O)cc2s1` [Example 132] it was 20 nM.
On the same count and under the same terms, in the case of `OC[C@H]1O[C@@H](c2ncnn2-c2cccc(C(F)(F)F)c2)[C@H](O)[C@@H](n2cc(-c3cc(F)c(F)c(F)c3)nn2)[C@H]1O` [Example 36] it was 220 nM; in that of `OC[C@H]1O[C@@H](c2ncnn2C2CCNCC2)[C@H](O)[C@@H](n2cc(-c3cc(F)c(F)c(F)c3)nn2)[C@H]1O` [Example 172], 3840 nM.
The same measure, in the same setting: in the case of `Cc1nc([C@H]2C[C@@H](n3cc(-c4cc(F)c(F)c(F)c4)nn3)[C@@H](O)[C@@H](CO)O2)n(-c2cc(Cl)ccc2F)n1` [Example 185] it was 170 nM.
Consider `Cc1nc2cc(C)c(-n3ncnc3[C@@H]3O[C@H](CO)[C@H](O)[C@H](n4cc(-c5cc(F)c(F)c(F)c5)nn4)[C@H]3O)cc2s1` [Example 49], for which the IC50 worked out at 50 nM.
In the case of `OC[C@H]1O[C@@H](n2nncc2-c2ccc(Cl)c(Cl)c2)C[C@@H](n2cc(-c3cc(F)c(F)c(F)c3)nn2)[C@H]1O` [Example 15, (2R,3R,4R,6R)-6-(5-(3,4-dichlorophenyl)-1H-1,2,3-triazol-1-yl)-2-(hydroxymethyl)-4-(4-(3,4,5-trifluorophenyl)-1H-1,2,3-triazol-1-yl)tetrahydro-2H-pyran-3-ol], the IC50 was determined as 880 nM.
Regarding `Cc1nc2ccc(-n3c(C(N)=O)nnc3[C@@H]3O[C@H](CO)[C@H](O)[C@H](n4cc(-c5cc(F)c(F)c(F)c5)nn4)[C@H]3O)cc2s1` [Example 277, 5-((2S,3R,4R,5R,6R)-3,5-dihydroxy-6-(hydroxymethyl)-4-(4-(3,4,5-trifluorophenyl)-1H-1,2,3-triazol-1-yl)tetrahydro-2H-pyran-2-yl)-4-(2-methylbenzo[d]thiazol-6-yl)-4H-1,2,4-triazole-3-carboxamide], the half-inhibitory concentration (IC50) was found to be 40 nM.
On the same count and under the same terms, in the case of `OC[C@H]1O[C@@H](n2nncc2-c2ccccc2)C[C@@H](n2cc(-c3cc(F)c(F)c(F)c3)nn2)[C@H]1O` [Example 17] it was 902 nM.
Consider `OC[C@H]1O[C@@H](c2ncnn2-c2cccc(F)c2)[C@H](O)[C@@H](n2cc(-c3cc(F)c(F)c(F)c3)nn2)[C@H]1O` [Example 38], for which the IC50 worked out at 390 nM.
`OC[C@H]1O[C@@H](n2ccc3cc(Cl)ccc32)[C@H](O)[C@@H](n2cc(-c3cc(F)c(F)c(F)c3)nn2)[C@H]1O` [Example 291, (2R,3R,4S,5R,6R)-2-(5-chloro-1H-indol-1-yl)-6-(hydroxymethyl)-4-(4-(3,4,5-trifluorophenyl)-1H-1,2,3-triazol-1-yl)tetrahydro-2H-pyran-3,5-diol]: the IC50 is 10000 nM.
Consider `OC[C@H]1O[C@@H](c2ncnn2-c2c(F)cccc2F)[C@H](O)[C@@H](n2cc(-c3cc(F)c(F)c(F)c3)nn2)[C@H]1O` [Example 29], for which the IC50 stood at 1560 nM.
On the same count and under the same terms, in the case of `OC[C@H]1O[C@@H](c2nncn2Cc2cccs2)[C@H](O)[C@@H](n2cc(-c3cc(F)c(F)c(F)c3)nn2)[C@H]1O` [Example 127] it was 1280 nM; in that of `Cc1nc2ccc(-n3cnnc3[C@@H]3O[C@H](CO)[C@H](O)[C@H](n4cc(-c5cc(F)c(F)c(F)c5)nn4)[C@H]3O)cc2[nH]1` [Example 160], 330 nM.
Same read-out and setting: in the case of `OC[C@H]1O[C@@H](c2nncn2-c2ccc3c(c2)OCCO3)[C@H](O)[C@@H](n2cc(-c3cc(F)c(F)c(F)c3)nn2)[C@H]1O` [Example 96] it was 290 nM; in that of `Cc1nc2cc(Cl)c(-n3ncnc3[C@H]3C[C@@H](n4cc(-c5cc(F)c(F)c(F)c5)nn4)[C@@H](O)[C@@H](CO)O3)cc2s1` [Example 182], 120 nM; in that of `Cc1nc2ccc(-n3c([C@@H]4O[C@H](CO)[C@H](O)[C@H](n5cc(-c6cc(F)c(F)c(F)c6)nn5)[C@H]4O)nnc3C(C)(C)O)cc2s1` [Example 276, (2R,3R,4R,5R,6S)-2-(hydroxymethyl)-6-(5-(2-hydroxypropan-2-yl)-4-(2-methylbenzo[d]thiazol-6-yl)-4H-1,2,4-triazol-3-yl)-4-(4-(3,4,5-trifluorophenyl)-1H-1,2,3-triazol-1-yl)tetrahydro-2H-pyran-3,5-diol], 50 nM.
On to `CCN(CC)CCNC(=O)c1nnc([C@@H]2O[C@H](CO)[C@H](O)[C@H](n3cc(-c4cccc(F)c4)nn3)[C@H]2O)o1` [Example 297, N-(2-(diethylamino)ethyl)-5-((2R,3R,4S,5R,6R)-4-(4-(3-fluorophenyl)-1H-1,2,3-triazol-1-yl)-3,5-dihydroxy-6-(hydroxymethyl)tetrahydro-2H-pyran-2-yl)-1,3,4-oxadiazole-2-carboxamide], for which the IC50 is 9770 nM.
On the same count and under the same terms, in the case of `OCCn1cnnc1[C@@H]1O[C@H](CO)[C@H](O)[C@H](n2cc(-c3cc(F)c(F)c(F)c3)nn2)[C@H]1O` [Example 170, (2S,3R,4R,5R,6R)-2-(4-(2-hydroxyethyl)-4H-1,2,4-triazol-3-yl)-6-(hydroxymethyl)-4-(4-(3,4,5-trifluorophenyl)-1H-1,2,3-triazol-1-yl)tetrahydro-2H-pyran-3,5-diol] it was 2000 nM; in that of `Cc1nc([C@H]2C[C@@H](n3cc(-c4cc(F)c(F)c(F)c4)nn3)[C@@H](O)[C@@H](CO)O2)n(-c2ccc3nc(C)sc3c2)n1` [Example 187], 110 nM.

The assay is the same for the next values; noted with them: read-out: hGal3 IC50.
`Cc1nc2ccc(-n3cnnc3[C@@H]3O[C@H](CO)[C@H](O)[C@H](n4cc(-c5cc(F)c(Cl)c(F)c5)nn4)[C@H]3O)cc2s1` [Example 302]: the IC50 was 28 nM.
The same measure, in the same setting: in the case of `Cc1nc2ccc(-n3ncnc3[C@@H]3O[C@H](CO)[C@H](O)[C@H](n4cc(-c5cc(F)c(C#N)cc5C)nn4)[C@H]3O)cc2s1` [Example 235] it was 390 nM; in that of `Cc1nc2ccc(-n3c([C@@H]4O[C@H](CO)[C@H](O)[C@H](n5cc(-c6cc(F)c(Br)c(F)c6)nn5)[C@H]4O)nnc3C(F)(F)F)cc2s1` [Example 314], 57 nM; in that of `Cc1nc([C@H]2C[C@@H](n3cc(-c4cc(F)c(Cl)c(F)c4)nn3)[C@@H](O)[C@@H](CO)O2)n(-c2ccc3ncsc3c2)n1` [Example 265], 30 nM.
On the same count and under the same terms, in the case of `OC[C@H]1O[C@@H](c2nncn2-c2cc(Cl)ccc2Cl)[C@H](O)[C@@H](n2cc(-c3ccc(Cl)c(F)c3)nn2)[C@H]1O` [Example 304] it was 67 nM.

Still in this assay, the particulars now being: read-out: hGal IC50.
Consider `Cc1nc([C@@H]2O[C@H](CO)[C@H](O)[C@H](n3cc(-c4cc(F)c(Br)c(F)c4)nn3)[C@H]2O)n(-c2ccc3ncsc3c2)n1` [Example A29], for which the IC50 is 27 nM.
On to `Cc1nc([C@@H]2O[C@H](CO)[C@H](O)[C@H](n3cc(-c4cc(F)c(Cl)c(Cl)c4)nn3)[C@H]2O)n(-c2ccc3nc(C)sc3c2)n1` [Example A25], for which the IC50 came to 45 nM.
In the case of `Cc1nc([C@@H]2O[C@H](CO)[C@H](O)[C@H](n3cc(-c4ccc(Cl)c(F)c4)nn3)[C@H]2O)n(-c2cc(Cl)c(F)cc2Cl)n1` [Example A47], the IC50 was 54 nM.
Same read-out and setting: in the case of `Cc1nc([C@@H]2O[C@H](CO)[C@H](O)[C@H](n3cc(-c4cc(F)c(Cl)c(F)c4)nn3)[C@H]2O)n(-c2cc(Cl)cc3ccncc23)n1` [Example A37] it was 51 nM.
On the same count and under the same terms, in the case of `Cc1nc([C@@H]2O[C@H](CO)[C@H](O)[C@H](n3cc(-c4cc(F)c(Br)c(F)c4)nn3)[C@H]2O)n(-c2cc(Cl)cc3cccnc23)n1` [Example A14] it was 24 nM; in that of `Cc1nc([C@@H]2O[C@H](CO)[C@H](O)[C@H](n3cc(-c4ccc(Cl)cc4F)nn3)[C@H]2O)n(-c2cc(Cl)ccc2C(F)(F)F)n1` [Example A52], 52 nM.
